According to patent US7138361B2, “Herbicidal heterocycles” (E. I. du Pont de Nemours and Company, priority 2000, dated 2006):

How the values were obtained:
Format in all cases: in vivo
[1] = test system: Surinam grass (Brachiaria decumbens); test: Test B postemergence
In short: (§1)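 Seeds were planted and sprayed preemergence with test chemical in a non-phytotoxic solvent mixture containing surfactant; postemergence plants (2 to 18 cm, 1- to 4-leaf stage) received the same formulation. Greenhouse hold 13 to 15 days, then visual rating versus untreated controls on a 0–100 scale (0 no effect, 100 complete control).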

[2] = test system: barnyardgrass (Echinochloa crus-galli); test: Test B postemergence
In short: as §1

[3] = test system: blackgrass (Alopecurus myosuroides); test: Test B postemergence
In short: as §1

[4] = test system: cocklebur (Xanthium strumarium); test: Test B postemergence
In short: as §1

[5] = test system: corn (Zea mays); test: Test B postemergence
In short: as §1

[6] = test system: crabgrass (Digitaria sanguinalis); test: Test B postemergence
In short: as §1

[7] = test system: giant foxtail (Setaria faberii); test: Test B postemergence
In short: as §1

[8] = test system: lambsquarters (Chenopodium album); test: Test B postemergence
In short: as §1

[9] = test system: morning glory (Ipomoea hederacea); test: Test B postemergence
In short: as §1

[10] = test system: pigweed (Amaranthus retroflexus); test: Test B postemergence
In short: as §1

[11] = test system: velvetleaf (Abutilon theophrasti); test: Test B postemergence
In short: as §1

[12] = test system: wheat (Triticum aestivum); test: Test B postemergence
In short: as §1

[13] = test system: wild oat (Avena fatua); test: Test B postemergence
In short: as §1

[14] = test system: Surinam grass (Brachiaria decumbens); test: Test B preemergence
In short: as §1

[15] = test system: barnyardgrass (Echinochloa crus-galli); test: Test B preemergence
In short: as §1

[16] = test system: cocklebur (Xanthium strumarium); test: Test B preemergence
In short: as §1

[17] = test system: corn (Zea mays); test: Test B preemergence
In short: as §1

[18] = test system: crabgrass (Digitaria sanguinalis); test: Test B preemergence
In short: as §1

[19] = test system: giant foxtail (Setaria faberii); test: Test B preemergence
In short: as §1

[20] = test system: lambsquarters (Chenopodium album); test: Test B preemergence
In short: as §1

[21] = test system: morning glory (Ipomoea hederacea); test: Test B preemergence
In short: as §1

[22] = test system: pigweed (Amaranthus retroflexus); test: Test B preemergence
In short: as §1

[23] = test system: rice (Oryza saliva); test: Test B preemergence
In short: as §1

[24] = test system: velvetleaf (Abutilon theophrasti); test: Test B preemergence
In short: as §1

[25] = test system: smallflower flatsedge (Cyperus difformis); test: Test C flooded paddy test; settings: for Flatsedge plant response rating: Flooded Paddy, scale 0 to 100, 0 no effect, 100 complete control; for Plant response rating, Flatsedge: flooded paddy test, scale 0 to 100 (0 no effect, 100 complete control)
In short: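 Flooded paddy, 2-leaf stage at treatment. Readout: visual % control vs untreated, 0–100, at 12–14 d in greenhouse.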

[26] = test system: Nightshade; test: Test C preemergence; settings: Rate 500 g/ha, visual evaluation after 12 to 14 days
[27] = test system: Sunflower; test: Test C preemergence; settings: Rate 500 g/ha, visual evaluation after 12 to 14 days
[28] = Rate 125 g/ha, scale 0 (no effect) to 100 (complete control), 13 to 15 days
[29] = Rate 500 g/ha, scale 0 to 100, 0 is no effect, 100 is complete control, 13 to 15 days
[30] = Preemergence, Rate 500 g/ha, scale 0 to 100, 0 no effect, 100 complete control
[31] = preemergence, Rate 125 g/ha, scale of 0 to 100 where 0 is no effect and 100 is complete control, 13 to 15 days
[32] = Rate 125 g/ha, scale 0 to 100, 0 no effect, 100 complete control

CCCOc1cc(N2CCC(n3ccc(C(C)(C)C)n3)C2=O)ccc1C (stereo not drawn) [Compound 107]
100: Plant response rating, Cocklebur [4, 29] | Plant response rating, Lambsquarters [8, 29] | Plant response rating, Crabgrass [18, 30] | Plant response rating, Lambsquarters [20, 30] | Plant response rating, Lambsquarters [20, 31] | Plant response rating, Morningglory [21, 30] | Plant response rating, Pigweed [22, 30] | Flatsedge plant response rating ([25]; Rate 500 g/ha)
80: Plant response rating, Pigweed [22, 31]
90: Plant response rating, Pigweed [10, 29] | Plant response rating (0 to 100), Nightshade [26]
40: Plant response rating, Foxtail, Giant [19, 30]
0: Plant response rating, Surinam grass [1, 28] | Plant response rating, Surinam grass [1, 29] | Plant response rating, Barnyardgrass [2, 28] | Plant response rating, Barnyardgrass [2, 29] | Plant response rating, Blackgrass [3, 28] | Plant response rating, Blackgrass [3, 29] | Plant response rating, Corn [5, 28] | Plant response rating, Corn [5, 29] | Plant response rating, Crabgrass [6, 28] | Plant response rating, Crabgrass [6, 29] | Plant response rating, Foxtail, Giant [7, 28] | Plant response rating, Foxtail, Giant [7, 29] | Plant response rating, Wheat [12, 29] | Plant response rating, Wild Oat [13, 29] | Plant response rating, Surinam grass [14, 31] | Plant response rating, Barnyardgrass [15, 31] | Plant response rating, Cocklebur [16, 31] | Plant response rating, Corn [17, 30] | Plant response rating, Corn [17, 31] | Plant response rating, Crabgrass [18, 31] | Plant response rating, Foxtail, Giant [19, 31] | Plant response rating, Morningglory [21, 31] | Plant response rating, Rice [23, 30] | Plant response rating, Rice [23, 31] | Plant response rating, Velvetleaf [24, 30] | Plant response rating, Velvetleaf [24, 31]
20: Plant response rating, Cocklebur [16, 30]
50: Plant response rating, Flatsedge ([25]; Rate 125 g/ha)
30: Plant response rating, Barnyardgrass [15, 30] | Plant response rating, Flatsedge ([25]; Rate 62 g/ha)
60: Flatsedge plant response rating ([25]; Rate 250 g/ha)
70: Plant response rating, Cocklebur [4, 28] | Plant response rating, Morningglory [9, 29] | Plant response rating, Velvetleaf [11, 29] | Plant response rating, Surinam grass [14, 30] | Plant response rating (0 to 100), Sunflower [27]

CC(C)c1cccc(N2CCC(n3ccc(C(C)(C)C)n3)C2=O)c1 (stereo not drawn) [Compound 111]
90: Flatsedge plant response rating ([25]; Rate 250 g/ha) | Flatsedge plant response rating ([25]; Rate 500 g/ha)
100: Plant response rating, Barnyardgrass [15, 30] | Plant response rating, Crabgrass [18, 30] | Plant response rating, Lambsquarters [20, 30] | Plant response rating, Pigweed [22, 30]
60: Plant response rating, Wild Oat [13, 29] | Plant response rating, Flatsedge ([25]; Rate 125 g/ha)
50: Plant response rating, Flatsedge ([25]; Rate 62 g/ha)
0: Plant response rating, Surinam grass [1, 32] | Plant response rating, Barnyardgrass [2, 32] | Plant response rating, Barnyardgrass [2, 29] | Plant response rating, Blackgrass [3, 32] | Plant response rating, Cocklebur [4, 32] | Plant response rating, Cocklebur [4, 29] | Plant response rating, Corn [5, 32] | Plant response rating, Corn [5, 29] | Plant response rating, Crabgrass [6, 32] | Plant response rating, Foxtail, Giant [7, 32] | Plant response rating, Foxtail, Giant [7, 29] | Plant response rating, Lambsquarters [8, 32] | Plant response rating, Morningglory [9, 32] | Plant response rating, Morningglory [9, 29] | Plant response rating, Pigweed [10, 32] | Plant response rating, Pigweed [10, 29] | Plant response rating, Velvetleaf [11, 32] | Plant response rating, Velvetleaf [11, 29] | Plant response rating, Wild Oat [13, 32] | Plant response rating, Surinam grass [14, 30] | Plant response rating, Surinam grass [14, 31] | Plant response rating, Barnyardgrass [15, 31] | Plant response rating, Cocklebur [16, 30] | Plant response rating, Cocklebur [16, 31] | Plant response rating, Corn [17, 31] | Plant response rating, Foxtail, Giant [19, 30] | Plant response rating, Foxtail, Giant [19, 31] | Plant response rating, Morningglory [21, 30] | Plant response rating, Morningglory [21, 31] | Plant response rating, Pigweed [22, 31] | Plant response rating, Rice [23, 30] | Plant response rating, Rice [23, 31] | Plant response rating, Velvetleaf [24, 30] | Plant response rating, Velvetleaf [24, 31] | Plant response rating (0 to 100), Nightshade [26] | Plant response rating (0 to 100), Sunflower [27]
20: Plant response rating, Blackgrass [3, 29] | Plant response rating, Lambsquarters [8, 29] | Plant response rating, Wheat [12, 32] | Plant response rating, Wheat [12, 29]
40: Plant response rating, Surinam grass [1, 29]
70: Plant response rating, Crabgrass [18, 31]
30: Plant response rating, Crabgrass [6, 29] | Plant response rating, Corn [17, 30] | Plant response rating, Lambsquarters [20, 31]
